Like-named read-outs stand apart in the source and are kept apart here. Square brackets hold non-standard residues; d marks the D form. Peptide text beside a SMILES is read from it. * marks the point of attachment. ξ: configuration not given here. Abu(4,4,4-F3) = N[C@@H](CC(F)(F)F)C(=O)O; Phe(3-F) = N[C@@H](Cc1cccc(F)c1)C(=O)O; Phe(3-Me) = Cc1cccc(C[C@H](N)C(=O)O)c1; Dab(3S-OH) = NC[C@H](O)[C@H](N)C(=O)O; Phe(2-F) = N[C@@H](Cc1ccccc1F)C(=O)O; Lys(5ξ-OH) = NCC(O)CC[C@H](N)C(=O)O; ΔZArg = N=C(N)NCC/C=C(\N)C(=O)O; dOrn = NCCC[C@@H](N)C(=O)O; NH(CH2)4NH2 = NCCCCN*
What was measured:
[1] = target: N-type calcium channels (Cav2.2) (Rattus norvegicus (Rat), UniProt Q02294); test: biochemical; assay type: binding
[2] = Tolerability in mice, single i.v. bolus dose; settings: female, CD-1, mouse, in vivo, iv
[3] = tested on: Pseudomonas aeruginosa ATCC 27853; test: MIC, broth microdilution (CLSI), reference strain; settings: CAMHB
[4] = tested on: Escherichia coli ATCC 25922; test: MIC, broth microdilution (CLSI), reference strain; settings: CAMHB
[5] = tested on: Staphylococcus aureus ATCC 13709; test: MIC, broth microdilution (CLSI), reference strain; settings: CAMHB
[6] = tested on: Klebsiella pneumoniae ATCC 43816; test: MIC, broth microdilution (CLSI), reference strain; settings: CAMHB
[7] = tested on: Acinetobacter baumannii ATCC 19606; test: MIC, broth microdilution (CLSI), reference strain; settings: CAMHB
Ec #1 (NCTC13476) = test: MIC / resistance profile, multidrug-resistant strain; settings: multidrug-resistant E. coli NCTC13476
Ec #3 (EGB957) = test: as above; settings: multidrug-resistant E. coli EGB957
Ec #4 (GUE) = test: as above; settings: multidrug-resistant E. coli GUE
Ec #5 (DSM22315) = test: as above; settings: multidrug-resistant E. coli DSM22315
Kp #1 (NCTC13439) = test: as above; settings: multidrug-resistant K. pneumoniae NCTC13439
Kp #2 (DUB) = test: as above; settings: multidrug-resistant K. pneumoniae DUB
Kp #3 (A33504) = test: as above; settings: multidrug-resistant K. pneumoniae A33504
Kp #4 (ATCC BAA1904) = test: as above; settings: multidrug-resistant K. pneumoniae ATCC BAA1904
Kp #5 (6560) = test: as above; settings: multidrug-resistant K. pneumoniae 6560
[8] = tested on: Klebsiella pneumoniae ATCC BAA2470; test: Murine peritonitis/sepsis model with analog 24.66 (Example 12); settings: for Alive animals at 24 hrs: N=8
Experimental: Female CD-1 mice (weight, 25 g; Charles River) were used throughout the study. Six groups of 8 mice were inoculated by intraperitoneal (i.p.) injection of 0.5 ml Klebsiella pneumoniae ATCC BAA2470 suspension containing 10^8.1 CFU/ml in 0.9% sterile saline and 5% (wt/vol) mucin. One hour after bacterial challenge on day 0, mice were treated by intravenous (i.v.) route with the antibiotic solutions formulated in 0.9% sterile saline.
One group was administered with single bolus dose of tigecycline at 20 mg/kg. One group received no treatment.

Ec #2 (MIN) = test: MIC / resistance profile, multidrug-resistant strain; settings: multidrug-resistant E. coli MIN
[9] = tested on: Klebsiella pneumoniae ATCC BAA2470; test: Murine peritonitis/sepsis model with Odilorhabdin A (Example 13); assay type: in vivo, CD-1 mice
[10] = value in brackets, rat cerebral cortex, [125I]ω-conotoxin GVIA 0.001 nM, read-out: IC50 Cav2.2
[11] = class symbol, rat cerebral cortex, [125I]ω-conotoxin GVIA 0.001 nM, 30 minutes at room temperature, read-out: IC50 Cav2.2

SMILES | Pa: MIC Pseudomonas aeruginosa ATCC 27853 [3] | Ec: MIC Escherichia coli ATCC 25922 [4] | Sa: MIC Staphylococcus aureus ATCC 13709 [5] | Ab: MIC Acinetobacter baumannii ATCC 19606 [7] | MIC Ec#1 (Ec #1 (NCTC13476)) | MIC Ec#3 (Ec #3 (EGB957)) | MIC Ec#4 (Ec #4 (GUE)) | MIC Ec#5 (Ec #5 (DSM22315)) | MIC Ec#2 (Ec #2 (MIN)) | IC50 [1, 11] | further results
C[C@H](NC(=O)[C@@H](NC(=O)[C@@H](N)CCCCN)[C@@H](O)CN)C(=O)NCC(=O)N[C@H](CCCN)C(=O)N1CCC[C@H]1C(=O)N[C@@H](Cc1cnc[nH]1)C(=O)N[C@@H](CCCCN)C(=O)N/C(=C\CCNC(=N)N)C(=O)O [24.66] (H-K[Dab(3S-OH)]AG[dOrn]PHK[ΔZArg]-OH) | − (>32 μg/mL) | + (≤32 μg/mL) | + (≤32 μg/mL) | − (>32 μg/mL) | + (≤32 μg/mL) | + (≤32 μg/mL) | + (≤32 μg/mL) | + (≤32 μg/mL) | – | – | IC50 ([1]; read-out: IC50 Cav2.2): > 300 nM; LD50 at 5 days [2]: 494 mg/kg; Kp: MIC Klebsiella pneumoniae ATCC 43816 [6]: ++ (≤8 μg/mL); MIC Kp#1 (Kp #1 (NCTC13439)): ++ (≤8 μg/mL); MIC Kp#2 (Kp #2 (DUB)): ++ (≤8 μg/mL); MIC Kp#3 (Kp #3 (A33504)): ++ (≤8 μg/mL); MIC Kp#4 (Kp #4 (ATCC BAA1904)): ++ (≤8 μg/mL); MIC Kp #5 (Kp #5 (6560)): ++ (≤8 μg/mL); Alive animals at 24 hrs ([8]; 6 mg/kg i.v. single bolus): 0; Alive animals at 24 hrs ([8]; 12.5 mg/kg i.v. single bolus): 2; Alive animals at 24 hrs ([8]; 25 mg/kg i.v. single bolus): 5; Alive animals at 24 hrs ([8]; 50 mg/kg i.v. single bolus): 7; ED50 ([8]; single i.v. bolus one hour after i.p. challenge, 10^8.1 CFU/ml, observed 24 hours): 20.4 mg/kg
C[C@H](NC(=O)[C@@H](NC(=O)[C@@H](N)CCCCN)[C@@H](O)CN)C(=O)NCC(=O)N[C@H](CCCN)C(=O)N1CCC[C@H]1C(=O)N[C@@H](CC(F)(F)F)C(=O)N[C@@H](CCCCN)C(=O)N/C(=C\CCNC(=N)N)C(=O)O [24.109] (H-K[Dab(3S-OH)]AG[dOrn]P[Abu(4,4,4-F3)]K[ΔZArg]-OH) | − (>32 μg/mL) | ++ (≤8 μg/mL) | ++ (≤8 μg/mL) | − (>32 μg/mL) | + (≤32 μg/mL) | + (≤32 μg/mL) | + (≤32 μg/mL) | + (≤32 μg/mL) | + (≤32 μg/mL) | – | IC50 [1]: > 300 nM; IC50 [1, 10]: 1000 nM
C[C@H](NC(=O)[C@@H](NC(=O)[C@@H](N)CCCCN)[C@@H](O)CN)C(=O)NCC(=O)N[C@H](CCCN)C(=O)N1CCC[C@H]1C(=O)N[C@@H](Cc1ccccc1F)C(=O)N[C@@H](CCCCN)C(=O)N/C(=C\CCNC(=N)N)C(=O)O [24.151] (H-K[Dab(3S-OH)]AG[dOrn]P[Phe(2-F)]K[ΔZArg]-OH) | − (>32 μg/mL) | ++ (≤8 μg/mL) | ++ (≤8 μg/mL) | − (>32 μg/mL) | + (≤32 μg/mL) | + (≤32 μg/mL) | + (≤32 μg/mL) | ++ (≤8 μg/mL) | + (≤32 μg/mL) | > 300 nM | –
C[C@H](NC(=O)[C@@H](NC(=O)[C@@H](N)CCCCN)[C@@H](O)CN)C(=O)NCC(=O)N[C@H](CCCN)C(=O)N1CCC[C@H]1C(=O)N[C@@H](Cc1cccc(F)c1)C(=O)N[C@@H](CCCCN)C(=O)N/C(=C\CCNC(=N)N)C(=O)O [24.152] (H-K[Dab(3S-OH)]AG[dOrn]P[Phe(3-F)]K[ΔZArg]-OH) | − (>32 μg/mL) | ++ (≤8 μg/mL) | ++ (≤8 μg/mL) | − (>32 μg/mL) | + (≤32 μg/mL) | + (≤32 μg/mL) | + (≤32 μg/mL) | ++ (≤8 μg/mL) | + (≤32 μg/mL) | > 300 nM | –
Cc1cccc(C[C@H](NC(=O)[C@@H]2CCCN2C(=O)[C@@H](CCCN)NC(=O)CNC(=O)[C@H](C)NC(=O)[C@@H](NC(=O)[C@@H](N)CCCCN)[C@@H](O)CN)C(=O)N[C@@H](CCCCN)C(=O)N/C(=C\CCNC(=N)N)C(=O)O)c1 [24.153] (H-K[Dab(3S-OH)]AG[dOrn]P[Phe(3-Me)]K[ΔZArg]-OH) | − (>32 μg/mL) | ++ (≤8 μg/mL) | ++ (≤8 μg/mL) | − (>32 μg/mL) | ++ (≤8 μg/mL) | ++ (≤8 μg/mL) | + (≤32 μg/mL) | ++ (≤8 μg/mL) | ++ (≤8 μg/mL) | > 300 nM | –
COc1ccc(C[C@H](NC(=O)[C@@H]2CCCN2C(=O)[C@@H](CCCN)NC(=O)CNC(=O)[C@H](C)NC(=O)[C@@H](NC(=O)[C@@H](N)CCCCN)[C@@H](O)CN)C(=O)N[C@@H](CCCCN)C(=O)N/C(=C\CCNC(=N)N)C(=O)O)cc1 [24.154] (H-K[Dab(3S-OH)]AG[dOrn]PY(Me)K[ΔZArg]-OH) | − (>32 μg/mL) | ++ (≤8 μg/mL) | ++ (≤8 μg/mL) | − (>32 μg/mL) | ++ (≤8 μg/mL) | ++ (≤8 μg/mL) | ++ (≤8 μg/mL) | ++ (≤8 μg/mL) | ++ (≤8 μg/mL) | > 300 nM | –
N=C(N)NCC/C=C(\NC(=O)[C@H](CCC(O)CN)NC(=O)[C@H](Cc1c[nH]cn1)NC(=O)[C@@H]1CCCN1C(=O)[C@@H](CCCN)NC(=O)CNC(=O)[C@@H](NC(=O)[C@@H](NC(=O)[C@@H](N)CCCCN)[C@@H](O)CN)[C@@H](O)CN)C(=O)N[C@@H](CCC(O)CN)C(=O)NCCCCN (stereo partly drawn) [Odilorhabdin A] (H-K[Dab(3S-OH)][Dab(3S-OH)]G[dOrn]PH[Lys(5ξ-OH)][ΔZArg][Lys(5ξ-OH)]-{NH(CH2)4NH2}; N-terminus and C-terminus assumed) | – | – | – | – | – | – | – | – | – | – | IC50 [1, 10]: 25 nM; Alive animals at 24 hrs ([9]; 5 mg/kg i.v. single bolus, n=6): 0; Alive animals at 24 hrs ([9]; 10 mg/kg i.v. single bolus, n=8): 2; Alive animals at 24 hrs ([9]; 15 mg/kg i.v. single bolus, n=7): 4; Alive animals at 24 hrs ([9]; 20 mg/kg i.v. single bolus, n=8): 6; ED50 ([9]; single i.v. bolus one hour after i.p. challenge, 10^7.7 CFU/ml, observed 24 hours): 13.9 mg/kg
CN(C)c1cc(NC(=O)CNC(C)(C)C)c(O)c2c1C[C@H]1C[C@H]3[C@H](N(C)C)C(O)=C(C(N)=O)C(=O)[C@@]3(O)C(O)=C1C2=O [Tigecycline, tigecycline, reference compound] | – | – | – | – | – | – | – | – | – | – | Alive animals at 24 hrs ([9]; 15 mg/kg i.v. single bolus, n=8 (tigecycline)): 8; Alive animals at 24 hrs ([8]; 20 mg/kg i.v. single bolus): 8

From patent publication US10626144B2, “Peptide derivatives and uses thereof” (Nosopharm, priority 2014, dated 2020)
